These molecules were tested against T1, N-formyl peptide receptor 2 (Homo sapiens, UniProt P25090) (assay: human FPR2 ligand displacement potency – cell-based, flow cytometry, Ki from IC50, selectivity assay for FPR1 ligand SAR project, dose response (AID 723)).
T1 sequence (P25090 whole entry): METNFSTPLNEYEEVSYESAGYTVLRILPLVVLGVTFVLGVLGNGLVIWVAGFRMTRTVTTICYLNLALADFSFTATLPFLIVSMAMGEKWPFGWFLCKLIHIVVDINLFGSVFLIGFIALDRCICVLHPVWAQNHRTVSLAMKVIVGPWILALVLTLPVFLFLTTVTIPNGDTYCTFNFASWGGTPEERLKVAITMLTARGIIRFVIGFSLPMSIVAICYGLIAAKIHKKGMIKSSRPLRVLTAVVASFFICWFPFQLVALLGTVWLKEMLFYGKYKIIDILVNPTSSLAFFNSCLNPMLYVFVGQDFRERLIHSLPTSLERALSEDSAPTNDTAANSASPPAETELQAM

Ki [µM]	SMILES
> 40.3	COc1ccc(C2C(C(=O)c3ccccc3)C(=O)C(=O)N2CCCn2ccnc2)c(OC)c1 (stereo unspecified) [(4E)-5-(2,4-dimethoxyphenyl)-1-(3-imidazol-1-ylpropyl)-4-[oxidanyl(phenyl)methylidene]pyrrolidine-2,3-dione]
> 40.3	COc1cc(C2C(C(=O)c3cc4ccccc4o3)C(=O)C(=O)N2CCN(C)C)ccc1O (stereo unspecified) [3-(1-benzofuran-2-carbonyl)-1-[2-(dimethylamino)ethyl]-4-hydroxy-2-(4-hydroxy-3-methoxyphenyl)-2H-pyrrol-5-one]
> 40.3	CCCCCCN1C(=O)C(=O)C(C(=O)c2ccccc2)C1c1ccc(O)c(OC)c1 (stereo unspecified) [(4Z)-1-hexyl-5-(3-methoxy-4-oxidanyl-phenyl)-4-[oxidanyl(phenyl)methylidene]pyrrolidine-2,3-dione]
> 40.3	COc1ccc(C2C(C(=O)c3ccccc3)C(=O)C(=O)N2c2cccc(Cl)c2)c(OC)c1 (stereo unspecified) [(4E)-1-(3-chlorophenyl)-5-(2,4-dimethoxyphenyl)-4-[hydroxy(phenyl)methylene]pyrrolidine-2,3-quinone]
> 40.3	COc1ccc(OC)c(C2C(C(=O)c3ccc(C)cc3)C(=O)C(=O)N2CCC(=O)O)c1 (stereo unspecified) [3-[(3E)-2-(2,5-dimethoxyphenyl)-3-[(4-methylphenyl)-oxidanyl-methylidene]-4,5-bis(oxidanylidene)pyrrolidin-1-yl]propanoic acid]
> 40.3	COc1ccc(C2C(C(=O)c3ccc(C)cc3)C(=O)C(=O)N2Cc2cccnc2)c(OC)c1 (stereo unspecified) [(4E)-5-(2,4-dimethoxyphenyl)-4-[(4-methylphenyl)-oxidanyl-methylidene]-1-(pyridin-3-ylmethyl)pyrrolidine-2,3-dione]
> 40.3	COc1ccc(OC)c(C2C(C(=O)c3ccccc3)C(=O)C(=O)N2c2ccc(C)c(Cl)c2)c1 (stereo unspecified) [(4E)-1-(3-chloranyl-4-methyl-phenyl)-5-(2,5-dimethoxyphenyl)-4-[oxidanyl(phenyl)methylidene]pyrrolidine-2,3-dione]
> 40.3	COc1cc(C2C(C(C)=O)C(=O)C(=O)N2c2ccc(Br)cc2)ccc1O (stereo unspecified) [1-(4-bromophenyl)-3-ethanoyl-2-(3-methoxy-4-oxidanyl-phenyl)-4-oxidanyl-2H-pyrrol-5-one]
> 40.3	COCCCN1C(=O)C(=O)C(C(=O)c2ccccc2)C1c1ccc(C(C)C)cc1 (stereo unspecified) [(4E)-1-(3-methoxypropyl)-4-[oxidanyl(phenyl)methylidene]-5-(4-propan-2-ylphenyl)pyrrolidine-2,3-dione]
> 40.3	COc1ccc(C2C(C(=O)c3ccco3)C(=O)C(=O)N2CCCN2CCOCC2)cc1OC (stereo unspecified) [2-(3,4-dimethoxyphenyl)-3-(furan-2-carbonyl)-4-hydroxy-1-(3-morpholin-4-ylpropyl)-2H-pyrrol-5-one]
> 40.3	Cc1ccc(C(=O)C2C(=O)C(=O)N(c3nnc(C)s3)C2c2ccc(C(C)C)cc2)cc1 (stereo unspecified) [(4E)-4-[(4-methylphenyl)-oxidanyl-methylidene]-1-(5-methyl-1,3,4-thiadiazol-2-yl)-5-(4-propan-2-ylphenyl)pyrrolidine-2,3-dione]
> 40.3	CC(C)c1ccc(C2C(C(=O)c3ccccc3)C(=O)C(=O)N2Cc2cccnc2)cc1 (stereo unspecified) [(4E)-4-[hydroxy(phenyl)methylene]-5-p-cumenyl-1-(3-pyridylmethyl)pyrrolidine-2,3-quinone]
> 40.3	Cc1ccc(N2C(=O)C(=O)C(C(=O)c3ccccc3)C2c2cccc(F)c2)cc1Br (stereo unspecified) [(4Z)-1-(3-bromanyl-4-methyl-phenyl)-5-(3-fluorophenyl)-4-[oxidanyl(phenyl)methylidene]pyrrolidine-2,3-dione]
> 40.3	CCCCCCOc1cccc(N2C(=O)C(=O)C(C(=O)c3ccccc3)C2c2cccc(F)c2)c1 (stereo unspecified) [(4Z)-5-(3-fluorophenyl)-1-(3-hexoxyphenyl)-4-[hydroxy(phenyl)methylene]pyrrolidine-2,3-quinone]
> 40.3	O=C1C(=O)N(CCCN2CCOCC2)C(c2cccnc2)C1C(=O)c1cc2ccccc2o1 (stereo unspecified) [3-(1-benzofuran-2-carbonyl)-4-hydroxy-1-(3-morpholin-4-ylpropyl)-2-pyridin-3-yl-2H-pyrrol-5-one]
> 40.3	CC(=O)C1C(=O)C(=O)N(CCc2c(C)[nH]c3ccccc23)C1c1cccc(F)c1 (stereo unspecified)
> 40.3	COCCN1C(=O)C(=O)C(C(=O)c2ccccc2)C1c1cc(OC)ccc1OC (stereo unspecified) [(4E)-5-(2,5-dimethoxyphenyl)-1-(2-methoxyethyl)-4-[oxidanyl(phenyl)methylidene]pyrrolidine-2,3-dione]
> 40.3	O=C1C(=O)N(CCCn2ccnc2)C(c2cccnc2)C1C(=O)c1cc2ccccc2o1 (stereo unspecified) [3-(1-benzofuran-2-carbonyl)-4-hydroxy-1-(3-imidazol-1-ylpropyl)-2-pyridin-3-yl-2H-pyrrol-5-one]

Ki [µM]	SMILES
> 40.3	COc1ccc(C(=O)C2C(=O)C(=O)N(CCc3c[nH]c4ccccc34)C2c2ccc(C(C)C)cc2)cc1 (stereo unspecified)
> 40.3	COc1ccc(C2C(C(=O)c3cccs3)C(=O)C(=O)N2CCCn2ccnc2)cc1 (stereo unspecified) [1-(3-imidazol-1-ylpropyl)-2-(4-methoxyphenyl)-4-oxidanyl-3-thiophen-2-ylcarbonyl-2H-pyrrol-5-one]
> 40.3	COc1ccc(C(=O)C2C(=O)C(=O)NC2c2ccc(OC)cc2OC)cc1 (stereo unspecified) [(4Z)-5-(2,4-dimethoxyphenyl)-4-[(4-methoxyphenyl)-oxidanyl-methylidene]pyrrolidine-2,3-dione]
> 40.3	O=C1C(=O)N(c2ccc(F)cc2)C(c2ccc(Br)cc2)C1C(=O)c1ccccc1 (stereo unspecified) [(4Z)-5-(4-bromophenyl)-1-(4-fluorophenyl)-4-[hydroxy(phenyl)methylene]pyrrolidine-2,3-quinone]
> 40.3	COc1ccc(C2C(C(=O)c3ccco3)C(=O)C(=O)N2CCN2CCOCC2)c(OC)c1 (stereo unspecified) [5-(2,4-dimethoxyphenyl)-4-(furan-2-carbonyl)-3-hydroxy-1-(2-morpholinoethyl)-1H-pyrrol-2(5H)-one]
> 40.3	Cc1ccc(C(=O)C2C(=O)C(=O)N(Cc3cccnc3)C2c2ccc(Br)cc2)cc1 (stereo unspecified) [(4E)-5-(4-bromophenyl)-4-[(4-methylphenyl)-oxidanyl-methylidene]-1-(pyridin-3-ylmethyl)pyrrolidine-2,3-dione]
> 40.3	O=C1NC(c2ccc(Br)cc2)C(C(=O)c2ccc(Cl)cc2)C1=O (stereo unspecified) [(4E)-5-(4-bromophenyl)-4-[(4-chlorophenyl)-hydroxy-methylene]pyrrolidine-2,3-quinone]
> 40.3	COCCN1C(=O)C(=O)C(C(=O)c2ccccc2)C1c1ccc(C(C)C)cc1 (stereo unspecified) [(4E)-1-(2-methoxyethyl)-4-[oxidanyl(phenyl)methylidene]-5-(4-propan-2-ylphenyl)pyrrolidine-2,3-dione]
> 40.3	O=C(O)CCCN1C(=O)C(=O)C(C(=O)c2ccccc2)C1/C=C/c1ccccc1 (stereo unspecified) [4-[(4E)-2,3-bis(oxidanylidene)-4-[oxidanyl(phenyl)methylidene]-5-[(E)-2-phenylethenyl]pyrrolidin-1-yl]butanoic acid]
> 40.3	COc1ccc(OC)c(C2C(C(=O)c3ccccc3)C(=O)C(=O)N2c2cccnc2)c1 (stereo unspecified) [(4E)-5-(2,5-dimethoxyphenyl)-4-[hydroxy(phenyl)methylene]-1-(3-pyridyl)pyrrolidine-2,3-quinone]
> 40.3	O=C1C(=O)N(CN2CCOCC2)C(c2ccc(Br)cc2)C1C(=O)c1ccccc1 (stereo unspecified) [(4E)-5-(4-bromophenyl)-1-(morpholin-4-ylmethyl)-4-[oxidanyl(phenyl)methylidene]pyrrolidine-2,3-dione]
> 40.3	COc1ccc(C2C(C(=O)c3cc4ccccc4o3)C(=O)C(=O)N2CCN(C)C)cc1OC (stereo unspecified) [3-(1-benzofuran-2-carbonyl)-2-(3,4-dimethoxyphenyl)-1-[2-(dimethylamino)ethyl]-4-hydroxy-2H-pyrrol-5-one]
> 40.3	O=C1C(=O)N(CCCn2ccnc2)C(c2cccnc2)C1C(=O)c1ccco1 (stereo unspecified) [3-(furan-2-carbonyl)-4-hydroxy-1-(3-imidazol-1-ylpropyl)-2-pyridin-3-yl-2H-pyrrol-5-one]
> 40.3	COCCCN1C(=O)C(=O)C(C(=O)c2ccccc2)C1c1ccc(O)c(OC)c1 (stereo unspecified) [(4E)-5-(3-methoxy-4-oxidanyl-phenyl)-1-(3-methoxypropyl)-4-[oxidanyl(phenyl)methylidene]pyrrolidine-2,3-dione]
> 40.3	COCCN1C(=O)C(=O)C(C(=O)c2ccccc2)C1c1ccccc1OC (stereo unspecified) [(4E)-1-(2-methoxyethyl)-5-(2-methoxyphenyl)-4-[oxidanyl(phenyl)methylidene]pyrrolidine-2,3-dione]
> 40.3	O=C1C(=O)N(CCc2ccccc2)C(c2ccc(Cl)cc2)C1C(=O)c1cccs1 (stereo unspecified) [2-(4-chlorophenyl)-4-hydroxy-1-(2-phenylethyl)-3-(thiophene-2-carbonyl)-2H-pyrrol-5-one]
> 40.3	N#Cc1c(N=C(CC(=O)c2ccccc2)C(=O)O)sc2c1CCC2 [(Z)-2-[(3-cyano-5,6-dihydro-4H-cyclopenta[b]thiophen-2-yl)amino]-4-keto-4-phenyl-but-2-enoic acid]
> 40.3	COc1ccc(C2C(C(=O)c3cccs3)C(=O)C(=O)N2CCN2CCOCC2)c(OC)c1 (stereo unspecified) [2-(2,4-dimethoxyphenyl)-1-(2-morpholin-4-ylethyl)-4-oxidanyl-3-thiophen-2-ylcarbonyl-2H-pyrrol-5-one]

From BindingDB's records for doi:10.7270/Q26M3571 (Nmmlsc, 2007)
